Read-outs that look alike come from different tables or passages of the source.
Experiments:
[1] = Two hour rat biolocalization of radionuclide compositions (Tables I, II, III); format: in vivo; settings: 2 h, average of five rats; for Bone/Blood Ratio / Bone/Muscle Ratio: from percent dose per gram; for % Dose in Blood / % Dose in Liver / % Dose in Skeleton / % Dose in Urine / % Dose in Muscle: tail vein
Description: A vial is used to prepare the sample for injection. The vial contains 210 mg EDTMP and 140 mg of NaOH such that addition of 6 ml of a 3×10^-4 M Ho-166 solution in 0.1M HCl gave a final pH in the range of 7-8, forming the Ho-166 EDTMP composition. After checking the pH, samples were drawn for injection into Sprague-Dawley rats. Rats were injected with 100 microliters of the solution via a tail vein. Two hours after the injection the rats were killed by cervical dislocation and dissected. The amount of radiation in each tissue was obtained by counting in a NaI well counter and comparing to standards.
The biolocalization of compositions prepared as described in Examples 7, 8, 9 and 10 was determined in rats.
The numbers given in Table I represent the average of the results of five rats per Example.
The biolocalization of the composition prepared as described in Example 12 was determined in rats.
The numbers given in Table II represent the average of the results of testing in three rats.
The biolocalization of compositions prepared as described in Examples 14 and 15 was determined in rats.
The numbers given in Table III represent the average of the results of five rats per Example.

bone marrow [2] = settings: mouse about 20 g, 198 μCi, six days
Description: A mouse weighing about 20 g is injected with 198 μCi of a Ho-166 EDTMP composition. After six days, the animal is sacrificed and both femurs and the sternum removed. The same bones are also taken from a nontreated animal (control). The tissues are fixed using standard histochemical procedures and decalcified using formic acid. The tissues are embedded in paraffin, three micron sections cut, placed on glass slides, and stained with hematoxilyn and eosin.

[3] = rat
Description: Quantitative biodistributions in rats are obtained by injecting 50-100 microliters (μl) of the radionuclide composition into the tail vein of unanesthetized laboratory rats. After a given period of time, the rats are sacrificed by cervical dislocation and various organs and tissues removed. The tissue samples are then rinsed, blotted dry and weighed. The radioactivity in the tissue samples are measured using a NaI scintillation counter in order to determine the biolocalization of the radionuclide.
The numbers given for each Example, with respect to Tables I, II and III represent the percentage of the administered dose which localized in the indicated tissue. The ratio of radioactivity observed in bone relative to other organs was calculated based on the percent dose per gram in the bone and in the particular organ.
A series of rats was injected with the composition of Example 7 and sacrificed in groups of five at various intervals.

[4] = rabbit, three hours, averaged for 5 rabbits
Description: The composition of Example 7 was also evaluated in rabbits. The rabbits were injected with 100-250 microliters of the composition via a cannula placed in the marginal ear vein.
Three hours after injection, a blood sample was taken by cardiac puncture and the animal was then sacrificed by injection of a commercial euthanasia solution.

bone marrow [5] = settings: normal beagles, various dose levels, weekly blood samples
Description: A series of normal beagles was treated with various dose levels of the composition of Example 7. Blood samples were obtained weekly with white blood cell and platelet counts taken to monitor for signs of bone marrow suppression.

O=P(O)(O)CN(CCO)CCN(CP(=O)(O)O)CP(=O)(O)O.[153Sm] [Example 9]
Bone/Blood Ratio [1]: 1300
Bone/Muscle Ratio [1]: 1300
% Dose in Blood [1]: 0.035 % Dose
% Dose in Liver [1]: 0.45 % Dose
% Dose in Skeleton [1]: 57 % Dose
% Dose in Urine [1]: 50 % Dose

O=P(O)(O)CN(CCO)CCN(CP(=O)(O)O)CP(=O)(O)O.[159Gd] [Example 15]
Bone/Blood Ratio [1]: 335
Bone/Muscle Ratio [1]: 548
% Dose in Blood [1]: 0.14 % Dose
% Dose in Liver [1]: 0.57 % Dose
% Dose in Muscle [1]: 0.76 % Dose
% Dose in Skeleton [1]: 60 % Dose

O=P(O)(O)CN(CCN(CCN(CP(=O)(O)O)CP(=O)(O)O)CCN(CP(=O)(O)O)CP(=O)(O)O)CP(=O)(O)O.[153Sm] [Example 10]
Bone/Blood Ratio [1]: 80
Bone/Muscle Ratio [1]: 410
% Dose in Blood [1]: 0.25 % Dose
% Dose in Liver [1]: 0.18 % Dose
% Dose in Skeleton [1]: 28 % Dose
% Dose in Urine [1]: 65 % Dose

O=P(O)(O)CN(CCN(CP(=O)(O)O)CP(=O)(O)O)CP(=O)(O)O.[166Ho] [Example 12]
suppression of the marrow (bone marrow [2]): suppression of the marrow
density of hemapoetic stem cells in marrow (bone marrow [2]; vs nontreated control): significantly lower density of hemapoetic stem cells
number of red blood cells in marrow (bone marrow [2]; vs nontreated control): significantly higher number of red blood cells

O=P(O)(O)CN(CCN(CP(=O)(O)O)CP(=O)(O)O)CCN(CP(=O)(O)O)CP(=O)(O)O.[153Sm] [Example 8]
Bone/Blood Ratio [1]: 224
Bone/Muscle Ratio [1]: 220
% Dose in Blood [1]: 0.16 % Dose
% Dose in Liver [1]: 0.27 % Dose
% Dose in Skeleton [1]: 30 % Dose
% Dose in Urine [1]: 74 % Dose

O=P(O)(O)CN(CCN(CP(=O)(O)O)CP(=O)(O)O)CP(=O)(O)O.[153Sm] [Example 7]
Bone/Blood Ratio [1]: 1800
Bone/Muscle Ratio [1]: 1500
% Dose in Blood [1]: 0.032 % Dose
% Dose in Liver [1]: 0.25 % Dose
% Dose in Skeleton [1]: 58 % Dose
% Dose in Urine [1]: 49 % Dose
blood clearance [3]: rapid blood clearance
uptake in bone [3]: rapid uptake in bone
Bone/Blood ([3]; 1 Hr): 120
Bone/Muscle ([3]; 1 Hr): 300
Percent of the Administered Dose, Blood ([3]; 1 Hr): 0.5% of the Administered Dose
Percent of the Administered Dose, Kidneys ([3]; 1 Hr): 0.47% of the Administered Dose
Percent of the Administered Dose, Liver ([3]; 1 Hr): 0.32% of the Administered Dose
Percent of the Administered Dose, Skeleton ([3]; 1 Hr): 58% of the Administered Dose
Percent of the Administered Dose, Urine ([3]; 1 Hr): 47% of the Administered Dose
Bone/Blood ([3]; 2 Hrs): 1800
Bone/Muscle ([3]; 2 Hrs): 1500
Percent of the Administered Dose, Blood ([3]; 2 Hrs): 0.03% of the Administered Dose
Percent of the Administered Dose, Kidneys ([3]; 2 Hrs): 0.25% of the Administered Dose
Percent of the Administered Dose, Liver ([3]; 2 Hrs): 0.25% of the Administered Dose
Percent of the Administered Dose, Skeleton ([3]; 2 Hrs): 58% of the Administered Dose
Percent of the Administered Dose, Urine ([3]; 2 Hrs): 49% of the Administered Dose
Bone/Blood ([3]; 5 Hrs): 4200
Bone/Muscle ([3]; 5 Hrs): 3600
Percent of the Administered Dose, Blood ([3]; 5 Hrs): 0.008% of the Administered Dose
Percent of the Administered Dose, Kidneys ([3]; 5 Hrs): 0.36% of the Administered Dose
Percent of the Administered Dose, Liver ([3]; 5 Hrs): 0.37% of the Administered Dose
Percent of the Administered Dose, Skeleton ([3]; 5 Hrs): 59% of the Administered Dose
Percent of the Administered Dose, Urine ([3]; 5 Hrs): 46% of the Administered Dose
Bone/Blood ([3]; 15 Min): 7
Bone/Muscle ([3]; 15 Min): 30
Percent of the Administered Dose, Blood ([3]; 15 Min): 5.9% of the Administered Dose
Percent of the Administered Dose, Kidneys ([3]; 15 Min): 1.745% of the Administered Dose
Percent of the Administered Dose, Liver ([3]; 15 Min): 0.96% of the Administered Dose
Percent of the Administered Dose, Skeleton ([3]; 15 Min): 48% of the Administered Dose
Percent of the Administered Dose, Urine ([3]; 15 Min): 28% of the Administered Dose
Bone/Blood ([3]; 24 Hrs): 6700
Bone/Muscle ([3]; 24 Hrs): 2400
Percent of the Administered Dose, Blood ([3]; 24 Hrs): 0.007% of the Administered Dose
Percent of the Administered Dose, Kidneys ([3]; 24 Hrs): 0.25% of the Administered Dose
Percent of the Administered Dose, Liver ([3]; 24 Hrs): 0.35% of the Administered Dose
Percent of the Administered Dose, Skeleton ([3]; 24 Hrs): 52% of the Administered Dose
Percent of the Administered Dose, Urine ([3]; 24 Hrs): 55% of the Administered Dose
Bone/Blood ([3]; 30 Min): 20
Bone/Muscle ([3]; 30 Min): 70
Percent of the Administered Dose, Blood ([3]; 30 Min): 2.3% of the Administered Dose
Percent of the Administered Dose, Kidneys ([3]; 30 Min): 0.805% of the Administered Dose
Percent of the Administered Dose, Liver ([3]; 30 Min): 0.53% of the Administered Dose
Percent of the Administered Dose, Skeleton ([3]; 30 Min): 53% of the Administered Dose
Percent of the Administered Dose, Urine ([3]; 30 Min): 42% of the Administered Dose
Bone/Blood ([3]; 48 Hrs): 8200
Bone/Muscle ([3]; 48 Hrs): 2800
Percent of the Administered Dose, Blood ([3]; 48 Hrs): 0.006% of the Administered Dose
Percent of the Administered Dose, Kidneys ([3]; 48 Hrs): 0.29% of the Administered Dose
Percent of the Administered Dose, Liver ([3]; 48 Hrs): 0.46% of the Administered Dose
Percent of the Administered Dose, Skeleton ([3]; 48 Hrs): 60% of the Administered Dose
Percent of the Administered Dose, Urine ([3]; 48 Hrs): 50% of the Administered Dose
Bone/Blood ([3]; 72 Hrs): 7800
Bone/Muscle ([3]; 72 Hrs): 3400
Percent of the Administered Dose, Blood ([3]; 72 Hrs): 0.006% of the Administered Dose
Percent of the Administered Dose, Kidneys ([3]; 72 Hrs): 0.22% of the Administered Dose
Percent of the Administered Dose, Liver ([3]; 72 Hrs): 0.49% of the Administered Dose
Percent of the Administered Dose, Skeleton ([3]; 72 Hrs): 57% of the Administered Dose
Percent of the Administered Dose, Urine ([3]; 72 Hrs): 53% of the Administered Dose
clearance of the radioactivity from the skeletal system ([3]; throughout the course of the experiment): no significant clearance of the radioactivity from the skeletal system
% Dose in Blood ([4]; marginal ear vein): 0.12 % Dose
% Dose in Liver ([4]; marginal ear vein): 0.95 % Dose
% Dose in Skeleton ([4]; marginal ear vein): 66 % Dose
% Dose in Urine ([4]; marginal ear vein, 180 min): 34 % Dose
Bone/Blood Ratio [4]: 900
Bone/Muscle Ratio [4]: 1200
platelet count (bone marrow [5]): dose dependent reduction
white blood cell count (bone marrow [5]): dose dependent reduction

O=P(O)(O)CN(CCN(CP(=O)(O)O)CP(=O)(O)O)CP(=O)(O)O.[159Gd] [Example 14]
Bone/Blood Ratio [1]: 305
Bone/Muscle Ratio [1]: 577
% Dose in Blood [1]: 0.15 % Dose
% Dose in Liver [1]: 0.25 % Dose
% Dose in Muscle [1]: 0.56 % Dose
% Dose in Skeleton [1]: 57 % Dose

Reference: patent US4853209A, “Bone marrow suppressing agents” (The Dow Chemical Company, priority 1987, dated 1989)
